Where “and” joins values, the source holds several entries; their conditions need not be identical. Equal entries are not always repeated.
System: Escherichia coli. ess.
Test: Agar diffusion bioassay of diluted original antibiotic solutions (Example 9)
Assay type: cell-based
Design: unit not given here
Settings: in duplicate, indicator organism Escherichia coli. ess.
Experimental: Example 2(a) above was repeated using SCV (15) as the starting material. [drawing 27] Antibiotic in reaction mixtures was estimated by the agar diffusion method. Cyclization reaction mixtures were bioassayed using Micrococcus luteus ATCC 9341 and Escherichia coli Ess as indicator organisms. Ring expansion reaction mixtures were bioassayed using E. coli Ess as indicator organism in agar plates supplemented with penicillinase at 2 x 10^5 units/ml.
One hour after the antibiotics were administered blood was collected from the rats into sterile citrate containing syringes. Blood samples were centrifuged to sediment red blood cells and 20 micro litre amounts of plasma were bioassayed in duplicate using Escherichia coli. ess. as the indicator organism. Original antibiotic solutions were also diluted and bioassayed in duplicate.

In the case of CC1=C(C(=O)O)N2C(=O)[C@@H](NC(=O)CSCC(N)C(=O)O)[C@H]2SC1 (stereo partly shown) [(17), Carboxymethylcysteinyl-Desacetoxycephalosporin C], the “bioassay of original antibiotic solution” value (1 microgram per millilitre) is reported as 17.5 and 17.0 and the “bioassay of original antibiotic solution” value (10 micrograms per millilitre) is reported as 33.

With CC(=O)OCC1=C(C(=O)[O-])N2C(=O)[C@@H](NC(=O)CCCC(N)C(=O)O)[C@H]2SC1.[Na+] (stereo partly shown) [Na-Ceph-C, reference compound] the “bioassay of original antibiotic solution” value (1 microgram per millilitre) was 8.8 and the “bioassay of original antibiotic solution” value (10 micrograms per millilitre) was 23.5.

Source: patent publication EP0144170B1, “Biosynthesis of unnatural cephalosporins” (QUEEN'S UNIVERSITY AT KINGSTON, priority 1983, dated 1985)
